Source: US4526898A, “Antihypertensive 4-(2-imidazolin-2-yl-amino)-2-methyl-indazole” (priority 1983, dated 1985)
Read-outs that look alike come from different tables or passages of the source.

Assays:
[1] = system: Mouse; assay: Doubling of ethanol sleeping time (CNS activity); assay type: in vivo; conditions: po, read-out: Effective dose: Double ethanol sleeping time
Experimental: (§1) All tests were carried out under identical conditions according to standard testing methods. The animal species used, the route of administering the material to be tested, the type of test and the results obtained are shown in Table I hereunder.

[2] = system: Mouse; assay: Inhibition of heat-induced tail flick; assay type: in vivo; conditions: po, read-out: Effective dose: 50% inhibition of heat-induced tail flick
Experimental: as §1

[3] = system: Mouse; assay: Doubling of hexobarbitone sodium sleeping time (CNS activity); assay type: in vivo; conditions: po, read-out: Effective dose: Double hexobarbitone sodium sleeping time
Experimental: as §1

[4] = system: Rat; assay: Doubling of chloralhydrate sleeping time (CNS activity); assay type: in vivo; conditions: po, read-out: Effective dose: Double chloralhydrate sleeping time
Experimental: as §1

[5] = system: Mouse; assay: Reduction of 5HTP-induced head twitches; assay type: in vivo; conditions: sc, read-out: Effective dose: 50% reduction of 5HTP-induced head twitches
Experimental: as §1

[6] = system: Rat; assay: Reduction in tetrabenazine-induced ptosis; assay type: in vivo; conditions: po, read-out: Effective dose: 50% reduction in tetrabenazine-induced ptosis
Experimental: as §1

[7] = system: Mouse; assay: Reduction in exploratory behaviour; assay type: in vivo; conditions: po, read-out: Effective dose: 50% reduction in exploratory behaviour
Experimental: as §1

[8] = system: conscious cats; assay: Behavioural observation in conscious cats; assay type: in vivo, cat
[9] = system: Mouse; assay: Inhibition of acetic acid-induced writhing; assay type: in vivo; conditions: po, read-out: Effective dose: 50% inhibition of acetic acid-induced writhing
Experimental: as §1

[10] = Toxicity LD50 in rat; conditions: in vivo
Experimental: (§2) Toxicity values were determined applying identical standard methods. The data obtained are listed herebelow in Table II showing LD50 values as mg/kg body weight.

[11] = system: α1 -adrenoceptors; assay: Adrenoceptor activity, α1; conditions: summary statement
[12] = system: extra-cellular calcium controlled α1s -adrenoceptors; assay: Adrenoceptor activity, α1s; conditions: summary statement
[13] = system: adrenaline vasopressor effect; assay: Adrenaline antagonism (adrenaline reversal) in anaesthetised cats; assay type: in vivo, cat; conditions: adrenaline i.v., 5 to 10 mg/kg b.w. intraduodenally
Source text: Experimental hypertension was induced in anaesthetised cats by administering (i.v.) adrenaline.

[14] = Blood-brain barrier penetration; conditions: summary statement
[15] = system: drug-metabolising enzymes in the liver; assay: Induction of drug-metabolising enzymes in the liver; conditions: summary statement
[16] = Antihypertensive activity in nephrogenic GOLDBLATT hypertensive rats; assay type: in vivo, rat; conditions: in vivo, po; GOLDBLATT hypertensive rats, p.o.; LD50 rat p.o.; read-out: therapeutic index LD50 /ED50
Experimental: (§3) Antihypertensive activities for Sgd 101/75 of the invention and Sgd 230/75 of U.S. Pat. No. 4,036,976 were determined with nephrogenic GOLDBLATT hypertensive rats.

[17] = system: nephrogenic GOLDBLATT hypertensive rats; assay: as above; assay type: in vivo, rat; conditions: for ED50: Rattus norvegicus, po, nephrogenic GOLDBLATT hypertensive rats
Experimental: as §3

[18] = system: α2 -adrenoceptors; assay: Adrenoceptor activity, α2; conditions: summary statement
[19] = Toxicity LD50 in mouse; conditions: in vivo
Experimental: as §2

[20] = system: genetically fixed hypertension rats; conditions: p.o., prior art background; cited from earlier work

Compound | ED (2-fold sleeping time) [1] [mg/kg] | ED50 [2] [mg/kg] | ED (2-fold sleeping time) [3] [mg/kg] | ED (2-fold sleeping time) [4] [mg/kg] | ED50 [5] [mg/kg] | ED50 [7] [mg/kg] | ED50 [9] [mg/kg] | LD50 ([10]; iv) [mg/kg] | LD50 ([10]; po) [mg/kg] | selectivity ratio [16] | ED50 [17] [mg/kg] | LD50 ([19]; iv) [mg/kg] | LD50 ([19]; po) [mg/kg] | also measured
Clc1cccc(Cl)c1N=C1NCCN1 [Clonidine, 2-((2,6-dichloro-phenyl)-imino)-imidazolidine, reference compound] | 0.02 | 5 | 0.3 | 0.05 | 0.028 | 0.12 | 0.07 | – | – | – | – | – | – | ED50 ([6]; Rat, p.o.): 0.3 mg/kg; Behavioural changes / CNS depression ([8]; 1 mg/kg i.p.): signs of CNS depression
Cn1cc2c(NC3=NCCN3)cccc2n1 [Sgd 101/75, 4-(2-imidazolin-2-yl-amino)-2-methyl-indazole] | > 100 | > 100 | > 100 | > 100 | 28 | 72 | 4.5 | 69 | 3220 | 767 | 4.2 | 58 | 3900 | Activity on α1 -adrenoceptors [11]: partial agonist; Activity on α1s -adrenoceptors [12]: complete and highly specific agonist; Effect on adrenaline vasopressor effect (adrenaline reversal) [13]: conversion of the vasopressor effect of adrenaline into a depressor response; Penetration of the blood-brain barrier [14]: does not readily penetrate the blood-brain barrier; Induction of drug-metabolising enzymes in the liver [15]: does not induce drug-metabolising enzymes in the liver; ED50 ([6]; Rattus norvegicus): 33 mg/kg; anti-hypertensive activity relative to the prior art compound ([17]; relative to Sgd 230/75, taking into account LD50 values (rat, p.o.)): about 190%; Activity on α2 -adrenoceptors [18]: complete antagonist; Behavioural changes / CNS depression ([8]; 4 and 10 mg/kg i.p.): no apparent behavioural changes
Cn1ncc2c(NC3=NCCN3)cccc21 [Sgd 230/75, 4-(2-imidazolin-2-yl-amino)-1-methyl-indazole, reference compound] | – | – | – | – | – | – | – | 90 | 1200 | 400 | 3 | 22 | 600 | therapeutic index LD50 /ED50 [20]: 800
